Experiments:
MM.1S cells = experiment: MM.1S cell survival, MTT assay; type: cell-based; conditions: Homo sapiens, MM1.S, 72 h, 72 hours compound exposure
BRD4 = BRD4 (Homo sapiens, UniProt O60885); experiment: Differential Scanning Fluorimetry (DSF), stability of BRD4 upon ligand binding; conditions: for ΔTm at 4 µM: 100 μM protein, 4 μM compound and 2% DMSO; for IC50: estimated
Method: DSF=Differential Scanning Fluorimetry; provides a measure of the increased stability of BRD4 upon ligand binding The DSF experiment was run at 100 μM protein, 4 μM compound and 2% DMSO.

HEK293 = HEK293 cell IC50; type: cell-based; conditions: Homo sapiens

Structure (SMILES)	ΔTm at 4 µM (BRD4) [°C]	IC50 (BRD4) [nM]	IC50 (MM.1S cells) [nM]	IC50 (HEK293) [nM]
Cc1cnc(Nc2ccc(N3CCN(C)CC3)cc2)nc1Nc1cccc(NS(=O)(=O)C2CC2)c1	6.7 ± 0.11	130	600	1000
CN1CCN(c2ccc(Nc3ncc(Cl)c(Nc4cccc(NS(=O)(=O)C5CC5)c4)n3)cc2)CC1	6.9 ± 0.15	110	–	3600
Cc1nc(Nc2ccc(N3CCN(C)CC3)cc2)nc(Nc2cccc(S(=O)(=O)NC(C)(C)CO)c2)c1C	5.5 ± 0.17	320	–	4300
Cc1cnc(Nc2ccc(N3CCN(C)CC3)cc2)nc1Nc1ccc(Cl)c(NS(=O)(=O)CC(C)C)c1	7.28 ± 0.091	221	–	–
COc1cccc(Nc2nc(Nc3ccc(N4CCN(C)CC4)cc3)ncc2Cl)c1	1.68 ± 0.078	5960	–	–
CN1CCN(c2ccc(Nc3ncc(Cl)c(Nc4cccc(S(=O)(=O)NC(C)(C)C)c4)n3)cc2)CC1	5.7 ± 0.054	270	–	–
COc1cc(Nc2ncc(C(F)(F)F)c(Nc3ccc(N4CCN(C)CC4)cc3)n2)ccc1Cl	0.56 ± 0.37	14100	–	–
Cc1cnc(Nc2ccc(N3CCN(C)CC3)cc2)nc1Nc1ccc(Cl)c(S(=O)(=O)NC(C)(C)C)c1	8.4 ± 0.13	34	–	–
CCCS(=O)(=O)Nc1cc(Nc2nc(Nc3ccc(N4CCN(C)CC4)cc3)ncc2C)ccc1Cl	6.7 ± 0.15	130	–	–
CC(C)NS(=O)(=O)c1cccc(Nc2nc(N3CCN(c4ccc(N)cc4)CC3)ncc2Br)c1	0.16	19200	–	–
CN1CCN(c2ccc(Nc3nc4c(c(Nc5cccc(NS(=O)(=O)C6CC6)c5)n3)COC4)cc2)CC1	1.3 ± 0.12	7900	–	–
CN1CCN(c2ccc(Nc3ncc(C(F)(F)F)c(Nc4cccc(S(=O)(=O)NC(C)(C)C)c4)n3)cc2)CC1	0.2 ± 0.082	18600	–	–
Cc1cnc(Nc2ccc(N3CCN(C)CC3)cc2)nc1Nc1ccc(Cl)c(NS(=O)(=O)C2CC2)c1	7 ± 0.14	100	–	–
COc1cc(Nc2nc(Nc3ccc(N4CCN(C)CC4)cc3)nc3ccccc23)ccc1Cl	4.9 ± 0.13	500	–	1700
CC(C)(C)NS(=O)(=O)c1cccc(Nc2nc(Nc3ccc(N4CCNCC4)cc3)ncc2C(F)(F)F)c1	2.9 ± 0.031	2330	–	–
COc1ccc(Nc2nc(Nc3ccc(N4CCN(C)CC4)cc3)ncc2C)cc1OC	5.6 ± 0.059	290	–	–
Cc1cnc(Nc2ccc(N3CCN(C)CC3)cc2)nc1Nc1cccc(NS(=O)(=O)C(C)C)c1	7.5 ± 0.14	66	–	–
CCc1cnc(Nc2ccc(N3CCN(C)CC3)cc2)nc1Nc1ccc(Cl)c(OC)c1	1.3 ± 0.11	7980	–	–
Cc1cnc(Nc2ccc(CC(=O)N3CCN(C)CC3)cc2)nc1Nc1ccc(Cl)c(NS(=O)(=O)C(C)(C)C)c1	9.8 ± 0.03	12	–	–
COc1cc(Nc2nc(Nc3ccc(C(=O)NC4CCN(C)CC4)cc3)ncc2C)cc(OC)c1Cl	5.9 ± 0.063	2300	–	–

Structure (SMILES)	ΔTm at 4 µM (BRD4) [°C]	IC50 (BRD4) [nM]	IC50 (MM.1S cells) [nM]	IC50 (HEK293) [nM]
CN1CCN(c2ccc(Nc3ncc(Cl)c(Nc4ccc5c(c4)OCCO5)n3)cc2)CC1	2.6 ± 0.15	2940	–	–
Cc1cnc(Nc2ccc(N3CCN(C)CC3)cc2)nc1Nc1cccc(NS(C)(=O)=O)c1	4.6 ± 0.13	630	–	–
COc1cccc(Nc2nc(Nc3ccc(N4CCN(C)CC4)cc3)ncc2C)c1	3.2 ± 0.083	1850	–	–
CC(C)NS(=O)(=O)c1cccc(Nc2nc(Nc3ccc(N4CCNCC4)cc3)ncc2Br)c1	5	460	–	–
CC(C)NS(=O)(=O)c1cccc(Nc2nc(Nc3ccc(N4CCN(C)CC4)cc3)ncc2Cl)c1	4.6 ± 0.12	630	–	–
CCOc1cccc(Nc2nc(Nc3ccc(N4CCN(C)CC4)cc3)ncc2C)c1	5.4 ± 0.15	340	–	–
CC(C)Oc1cccc(Nc2nc(Nc3ccc(N4CCN(C)CC4)cc3)ncc2Cl)c1	4.8 ± 0.12	540	–	–
Cc1cnc(Nc2ccc(N3CCN(C)CC3)cc2)nc1Nc1cccc(NS(=O)(=O)CC(C)C)c1	6.58 ± 0.103	347	–	–
CCc1cnc(Nc2ccc(N3CCOCC3)cc2)nc1Nc1cccc(S(=O)(=O)NC(C)(C)C)c1	-0.0084	21800	–	–
CN1CCC(NC(=O)c2ccc(Nc3ncc(Cl)c(Nc4ccc(Cl)c(NS(=O)(=O)C(C)(C)C)c4)n3)cc2F)CC1	12 ± 0.5	10.5	90	–
Cc1nc(Nc2ccc(N3CCN(C)CC3)cc2)nc(Nc2cccc(S(=O)(=O)NC(C)(C)C)c2)c1C	5.3 ± 0.064	370	–	120000
Cc1cnc(Nc2ccc(N3CCN(C)CC3)cc2)nc1Nc1cccc(NC(=O)C2CC2)c1	4.6 ± 0.21	630	–	–
CCCS(=O)(=O)Nc1cccc(Nc2nc(Nc3ccc(N4CCN(C)CC4)cc3)ncc2C)c1	6.7 ± 0.157	321	–	–
CN1CCN(c2ccc(Nc3ncc(C(N)=O)c(Nc4cccc(S(=O)(=O)NC(C)(C)C)c4)n3)cc2)CC1	2.7 ± 0.0089	2700	–	–
CCOC(=O)c1cnc(Nc2ccc(N3CCN(C)CC3)cc2)nc1Nc1cccc(NS(=O)(=O)C(C)(C)C)c1	3.4 ± 0.12	1600	–	–
CN1CCN(c2ccc(Nc3ncc(Cl)c(Nc4cccc(S(=O)(=O)NC(C)(C)CO)c4)n3)cc2)CC1	6.1 ± 0.15	200	–	1500
Cc1cnc(Nc2ccc(N3CCN(C)CC3)cc2)nc1Nc1ccc2c(c1)N(S(=O)(=O)C(C)(C)C)CC2	9.97 ± 0.08	39	–	–
CCOc1cc(Nc2nc(Nc3ccc(N4CCN(C)CC4)cc3)ncc2Cl)ccc1Cl	3.7 ± 0.12	1300	–	–
COc1cc(Nc2nc(Nc3ccc(N4CCN(C)CC4)cc3)ncc2C)cc(OC)c1Cl	7.6 ± 0.15	63	1100	–

Further molecules by falling IC50 (BRD4), results first:

ΔTm at 4 µM (BRD4) [°C]	IC50 (BRD4) [nM]	Structure (SMILES)	IC50 (MM.1S cells) [nM]	IC50 (HEK293) [nM]
-0.79	39800	CC(C)NS(=O)(=O)c1cccc(Nc2nc(Nc3ccc(N4CCOCC4)cc3)ncc2Br)c1	–	–
0.22 ± 0.2	18300	COc1ccc(Nc2nc(C)c(C)c(Nc3cccc(S(=O)(=O)NC(C)(C)C)c3)n2)cc1	–	–
0.24 ± 0.13	18000	CCOC(=O)c1cnc(Nc2ccc(N3CCN(C)CC3)cc2)nc1Nc1ccc(Cl)c(OC)c1	–	–
0.57 ± 0.25	14000	COc1cc(Nc2nc(Nc3ccc(N4CCN(C)CC4)cc3)ncc2C)c(OC)cc1Cl	–	–
1.4 ± 0.11	7400	COc1cc(Nc2nc(Nc3ccc(N4CCN(C)CC4)cc3)ncc2C(C)C)ccc1Cl	–	–
2.5 ± 0.069	3200	COc1cc(Nc2ccnc(Nc3ccc(N4CCN(C)CC4)cc3)n2)ccc1Cl	–	–
2.6 ± 0.081	2900	CN1CCN(c2ccc(Nc3nc(Nc4cccc(S(=O)(=O)NC(C)(C)C)c4)c4ccccc4n3)cc2)CC1	–	–
2.9 ± 0.12	2330	Cc1cnc(Nc2ccc(N3CCN(C)CC3)cc2)nc1Nc1cccc(C(C)(C)C)c1	–	–
3.1 ± 0.08	2000	CN1CCN(c2ccc(Nc3ncc(CO)c(Nc4cccc(NS(=O)(=O)C(C)(C)C)c4)n3)cc2)CC1	–	–
3.2	1850	CCc1cnc(Nc2ccc(N3CCN(C)CC3)cc2)nc1Nc1cccc(S(=O)(=O)NC(C)(C)C)c1	–	–
3.3 ± 0.36	1800	Cc1cnc(Nc2ccc(N3CCN(C)CC3)cc2)nc1Nc1cccc(NS(=O)(=O)N(C)C)c1	–	–
3.5 ± 0.19	1500	Cc1cnc(Nc2ccc(N3CCN(C)CC3)cc2)nc1Nc1cccc(NC(=O)C(C)(C)C)c1	–	–
3.8 ± 0.056	1200	CC(C)NS(=O)(=O)c1cccc(Nc2nc(Nc3ccc(N4CCN(C)CC4)cc3)nc3c2CCC3)c1	–	–
4.1 ± 0.07	900	Cc1cnc(Nc2ccc(N3CCN(C)CC3)cc2)nc1Nc1cccc(NS(=O)(=O)c2ccccc2)c1	–	–
4.1 ± 0.12	900	Cc1cnc(Nc2ccc(N3CCN(C)CC3)cc2)nc1Nc1cccc(NC(=O)C(C)C)c1	–	–
4.3 ± 0.12	790	CCOc1cccc(Nc2nc(Nc3ccc(N4CCN(C)CC4)cc3)ncc2Cl)c1	–	–
4.9 ± 0.11	500	CN1CCN(c2ccc(Nc3nc4c(c(Nc5cccc(S(=O)(=O)NC(C)(C)C)c5)n3)CCC4)cc2)CC1	–	–
5.2 ± 0.02	400	COc1cc(Nc2nc(Nc3ccc(N4CCN(C)CC4)cc3)ncc2Cl)cc(OC)c1OC	–	2000
6.5 ± 0.18	150	Cc1cnc(Nc2ccc(N3CCN(C)CC3)cc2)nc1Nc1cccc(S(=O)(=O)NC(C)(C)CO)c1	–	3600
6.5 ± 0.11	150	Cc1cnc(Nc2ccc(N3CCN(C)CC3)cc2)nc1Nc1ccc(C(=O)NC2CC2)cc1	–	–
6.9 ± 0.1	110	COc1cc(Nc2nc(Nc3ccc(N4CCN(C)CC4)cc3)ncc2C)cc(OC)c1OC	–	970
7.5 ± 0.23	68	Cc1cnc(Nc2ccc(N3CCN(C)CC3)cc2)nc1Nc1cccc(NS(=O)(=O)C2(C)CC2)c1	–	–
7.6 ± 0.047	62	Cc1cnc(Nc2ccc(C(=O)NC3CCN(C)CC3)cc2)nc1Nc1cccc(NS(=O)(=O)C(C)(C)C)c1	–	–
9.91 ± 0.039	40.5	CN1CCC(NC(=O)c2ccc(Nc3ncc(F)c(Nc4ccc(Cl)c(NS(=O)(=O)C(C)(C)C)c4)n3)cc2F)CC1	120	–
8.6 ± 0.09	30	Cc1ccc(Nc2nc(Nc3ccc(N4CCN(C)CC4)cc3)ncc2C)cc1S(=O)(=O)NC(C)(C)C	–	–
10.5 ± 0.15	27.7	Cc1cnc(Nc2ccc(N3CCN(C)CC3)c(F)c2)nc1Nc1ccc2c(c1)N(S(=O)(=O)C(C)(C)C)CCC2	–	–
9.1 ± 0.05	20	Cc1cnc(Nc2ccc(N3CCN(C)CC3)c(F)c2)nc1Nc1cccc(NS(=O)(=O)C2(C)CC2)c1	–	–
11.4 ± 0.103	15.5	Cc1cnc(Nc2ccc(C(=O)NC3CCN(C)CC3)c(F)c2)nc1Nc1ccc2c(c1)N(S(=O)(=O)C(C)(C)C)CCC2	–	–

Reference: US10526291B2, “Potent dual BRD4-kinase inhibitors as cancer therapeutics” (H. Lee Moffitt Cancer Center and Research Institute, Inc., priority 2014, dated 2020)
